Laboratory results: patent US11684616B2, “Azalactam compounds as HPK1 inhibitors” (PFIZER INC., priority 2020, dated 2023)
Read-outs that look alike come from different tables or passages of the source.

Assays:
[1] = target: human full-length autophosphorylated recombinant HPK1 (Homo sapiens (Human), UniProt Q92918); test: HPK1 biochemical enzyme assay (chelation-enhanced fluorescence, CHEF); conditions: 0.5 nM HPK1, 45 μM ATP, Morrison fit
Procedure: HPK1 Biochemical Enzyme Assay
HPK1 enzyme inhibition was measured by using the fluorescence-based chelation-enhanced fluorescence (CHEF) method (1), and by using a proprietary fluorescent peptide substrate, in which a cysteine residue is alkylated with a sulfonamido-oxine-based derivative to afford an amino acid termed C-Sox (CSx). […] Initial reaction velocities were determined by following the peptide fluorescence (λex=360 nm, λem=500 nm) at 30° C. for 15 min in a Tecan M1000 plate reader (Tecan Group Ltd., Mannedorf, Zurich, Switzerland).
Production of Autophosphorylated Full-Length Recombinant HPK1
The DNA sequence encoding full-length human HPK1 (Genbank NM_001042600.2) was synthesized at GenScript and contained a limited number of silent base changes to eliminate certain restriction endonuclease enzyme recognition sites, and fused to a DNA sequence encoding a Tobacco Etch Virus (TEV)-cleavable N-terminal polyhistidine purification tag. A recombinant baculovirus was prepared by using the Bac-to-Bac method (InVitrogen) and was used to infect 9 L of Sf21 insect cells. All purification steps were carried out at 4° C. Cells containing recombinant HPK1 were lysed in 50 mM HEPES-NaOH, pH 7.5, 250 mM NaCl, 1 mM tris(2-carboxyethyl)phosphine (TCEP), 10 μM leupeptin (Sigma), 10 μM E-64 (Sigma), and one ‘EDTA-free’ protease inhibitor tablet (Roche) per 75 mL buffer, centrifuged at 15,000×g for 1 h and the supernatant passed over 5 mL of ProBond IMAC resin (InVitrogen). After washing, HPK1 was eluted with 12.5 mL of 50 mM HEPES-NaOH, pH 7.5, 400 mM NaCl, 250 mM imidazole-HCl pH 7.5, 1 mM TCEP, 2 μM leupeptin, and 2 μM E-64. The eluted HPK1 was dialyzed overnight against 0.8 L of 50 mM HEPES-NaOH, pH 7.5, 400 mM NaCl, 20 mM imidazole-HCl pH 7.5, 1 mM TCEP, 2 μM leupeptin, 2 μM E-64, 2 mM ATP-NaOH pH 7.3, 5 mM MgCl2 and 1 mg TEV (this step simultaneously allows for reduction of the imidazole concentration in preparation for the subsequent reverse IMAC chromatography step, removal of the polyhistidine purification tag by TEV protease, and autophosphorylation of HPK1 in the presence of MgATP). The de-tagged and autophosphorylated HPK1 was adjusted to 40 mM imidazole-HCl, pH 7.5, and passed through a 10 mL column of ProBond resin similarly equilibrated. […] The peak fractions containing HPK1 were pooled and concentrated to approximately 2.5 mL by using a centrifugal concentrator (Millipore). The concentrated HPK1 was adjusted to 20% (v/v) glycerol by the addition of 50% (v/v) glycerol, resulting in a final formulation of 25 mM HEPES-NaOH pH 7.5, 250 mM NaCl, 0.25 mM TCEP and 20% (v/v) glycerol. […] Aliquots of the enzyme were flash frozen in liquid nitrogen and stored at −80° C. The final product contains a glycine-serine extension at the N-terminus of the full-length protein, as a result of the cloning strategy.

[2] = test system: Phospho-SLP-76 (Ser376) in Jurkat cells; test: Phospho-SLP-76 (Ser376) HTRF assay in anti-CD3 stimulated Jurkat cells; type: cell-based; conditions: 30 min pre-treatment, anti-CD3 stimulation 15 min, read-out: pSLP76 IC50
Procedure: Cell Based Assays Phospho-SLP-76 (Ser376) Homogeneous Time Resolved Fluorescence (HTRF) Assay
Jurkat cells were seeded at 90,000 cells/well in 90 uL of RPMI1640 growth medium containing 10% FBS and incubated at 37° C. with 5% CO2 overnight. The following day, compounds were serially diluted from a 10 mM top dose for an 11-point 3-fold dilution curve in DMSO. Compounds were intermediately diluted 1:100 into growth media prior to diluting 1:10 on cells for final concentration 10 μM to 0.1 nM in 0.1% DMSO. After 30 min pre-treatment with compounds, the cells were stimulated using 200 μg/mL of F(ab)2 complexed anti-CD3 (clone UCTH1) for 15 min at 37° C. with 5% CO2. Stimulation was stopped with ice cold PBS and cells were harvested by centrifugation before lysis in Cisbio lysis buffer (Cisbio, Bedford, Mass.). Lysates were transferred to white, low-volume plates containing anti-phospho-SLP-76-Cryptate plus anti-phospho-SLP-76-d2 HTRF antibodies and incubated overnight at room temperature protected from light according to the manufacturer's protocol (Cisbio, Bedford, Mass.). HTRF was measured on a Perkin Elmer Envision and IC50 values were calculated by concentration-response curve fitting utilizing four-parameter nonlinear regression analyses.

Chain of human full-length autophosphorylated recombinant HPK1 (Q92918 other isoform, or with tags, fused parts or gaps): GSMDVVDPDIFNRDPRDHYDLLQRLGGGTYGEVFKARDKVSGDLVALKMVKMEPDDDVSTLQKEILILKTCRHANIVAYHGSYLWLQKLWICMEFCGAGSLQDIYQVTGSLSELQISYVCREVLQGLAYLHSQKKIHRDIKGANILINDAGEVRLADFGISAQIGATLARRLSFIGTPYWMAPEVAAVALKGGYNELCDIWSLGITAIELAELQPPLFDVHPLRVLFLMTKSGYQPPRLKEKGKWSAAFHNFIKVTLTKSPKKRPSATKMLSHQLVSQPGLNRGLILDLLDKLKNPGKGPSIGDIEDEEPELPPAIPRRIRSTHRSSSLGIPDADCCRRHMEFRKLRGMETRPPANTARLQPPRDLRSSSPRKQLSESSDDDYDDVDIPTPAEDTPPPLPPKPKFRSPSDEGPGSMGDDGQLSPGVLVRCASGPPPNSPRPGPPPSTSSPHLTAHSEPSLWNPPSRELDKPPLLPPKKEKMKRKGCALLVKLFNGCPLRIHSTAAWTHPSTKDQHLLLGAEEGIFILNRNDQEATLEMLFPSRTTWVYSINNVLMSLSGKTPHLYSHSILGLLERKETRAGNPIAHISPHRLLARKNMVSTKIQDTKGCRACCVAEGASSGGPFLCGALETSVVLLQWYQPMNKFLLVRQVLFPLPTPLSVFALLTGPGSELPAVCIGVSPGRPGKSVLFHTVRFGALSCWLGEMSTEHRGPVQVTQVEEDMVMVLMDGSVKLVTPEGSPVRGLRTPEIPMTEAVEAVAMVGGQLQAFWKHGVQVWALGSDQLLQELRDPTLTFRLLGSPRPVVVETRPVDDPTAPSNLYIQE

Compound	Ki [1] [nM]	IC50 ([2]; Homo sapiens, Jurkat) [nM]	IC50 [2] [nM]
CCN(C)c1cc2c(c([C@@H](C)N)n1)CN(c1cccc(-c3nncn3CC)n1)C2=O (single isomer, unassigned) [Example 129, 4-[(1ξ)-1-aminoethyl]-6-[ethyl(methyl)amino]-2-[6-(4-ethyl-4H-1,2,4-triazol-3-yl)pyridin-2-yl]-2,3-dihydro-1H-pyrrolo[3,4-c]pyridin-1-one]	0.28	97	
COC[C@@H](N)c1nc(C2(C)CC2)cc2c1CN(c1cccc(-c3nnc4n3[C@@H](CO)CC4)n1)C2=O (single isomer, unassigned) [Example 38]	0.18	197	
CCn1cnnc1-c1cccc(N2Cc3c(cc(C4(C)CC4)nc3C(C)(C)N)C2=O)n1 [Example 114, 4-(2-aminopropan-2-yl)-2-[6-(4-ethyl-4H-1,2,4-triazol-3-yl)pyridin-2-yl]-6-(1-methylcyclo-propyl)-2,3-dihydro-1H-pyrrolo[3,4-c]pyridin-1-one]	0.41	148	
CCCn1cnnc1-c1cccc(N2Cc3c(cc(N4CCC[C@H]4C)nc3[C@@H](C)N)C2=O)n1 (single isomer, unassigned) [Example 101]	0.17	118	
CCn1cnnc1-c1cccc(N2Cc3c(cc(N4CCC[C@H]4C)nc3[C@H](C)NC)C2=O)n1 (single isomer, unassigned) [Example 109]	0.31	61	
CCN(C)c1cc2c(c([C@H](C)N)n1)CN(c1cccc(-c3nncn3CC)n1)C2=O (single isomer, unassigned) [Example 130, 4-[(1ξ)-1-aminoethyl]-6-[ethyl(methyl)amino]-2-[6-(4-ethyl-4H-1,2,4-triazol-3-yl)pyridin-2-yl]-2,3-dihydro-1H-pyrrolo[3,4-c]pyridin-1-one]	0.4	77	
CCCn1cnnc1-c1cccc(N2Cc3c(cc(N4CCC[C@H]4C)nc3[C@H](C)N)C2=O)n1 (single isomer, unassigned) [Example 102]	0.11	107	
CCn1cnnc1-c1cccc(N2Cc3c(cc(N(C)C)nc3[C@H](C)N)C2=O)n1 (single isomer, unassigned) [Example 152, 4-[(1ξ)-1-aminoethyl]-6-(dimethyl-amino)-2-[6-(4-ethyl-4H-1,2,4-triazol-3-yl)pyridin-2-yl]-2,3-dihydro-1H-pyrrolo[3,4-c]pyridin-1-one]	1.53	191	
CCn1cnnc1-c1cccc(N2Cc3c(cc(C4(C)CC4)nc3[C@@H](C)NC)C2=O)n1 [Example 111, 2-[6-(4-ethyl-4H-1,2,4-triazol-3-yl)pyridin-2-yl]-4-[(1R)-1-(methylamino)ethyl]-6-(1-methylcyclo-propyl)-2,3-dihydro-1H-pyrrolo[3,4-c]pyridin-1-one]	3.42	470	
CCCn1cnnc1-c1cccc(N2Cc3c(cc(C4(C)CC4)nc3[C@@H](C)N)C2=O)n1 (single isomer, unassigned) [Example 117, 4-[(1ξ)-1-aminoethyl]-6-(1-methyl-cyclopropyl)-2-[6-(4-propyl-4H-1,2,4-triazol-3-yl)pyridin-2-yl]-2,3-dihydro-1H-pyrrolo[3,4-c]pyridin-1-one]	1.02	270	
CCn1c(C)nnc1-c1cccc(N2Cc3c(cc(N4CCC[C@H]4C)nc3[C@@H](C)NC)C2=O)n1 (single isomer, unassigned) [Example 107]	1.02	140	
CCCn1c(C)nnc1-c1cccc(N2Cc3c(cc(N4CCC[C@H]4C)nc3C(C)(C)N)C2=O)n1 [Example 133, 4-(2-aminopropan-2-yl)-2-[6-(5-methyl-4-propyl-4H-1,2,4-triazol-3-yl)pyridin-2-yl]-6-[(2R)-2-methylpyrroli-din-1-yl]-2,3-dihydro-1H-pyrrolo[3,4-c]pyridin-1-one]	0.12	95	

These reach a lower Ki [1]. Values come first.

Ki [1] [nM]	IC50 ([2]; Homo sapiens, Jurkat) [nM]	IC50 [2] [nM]	Compound
< 0.05	78		CNCc1nc(N(C)C(C)C)cc2c1CN(c1cccc(-c3nnc4n3[C@@H](C)C[C@@H]4C)n1)C2=O [Example 211, 2-{6-[(5S,7S)-5,7-dimethyl-6,7-dihydro-5H-pyrrolo[2,1-c] [1,2,4]triazol-3-yl]pyridin-2-yl}-4-[(methyl-amino)methyl]-6-[methyl (propan-2-yl)amino]-2,3-dihydro-1H-pyrrolo[3,4-c] pyridin-1-one]
< 0.05	62		C[C@@H]1CCCN1c1cc2c(c([C@@H](C)N)n1)CN(c1cccc(-c3nnc4n3[C@@H](CO)CC4)n1)C2=O [Example 30, 4-[(1R)-1-aminoethyl]-2-{6-[(5R)-5-(hydroxy-methyl)-6,7-dihydro-5H-pyrrolo[2,1-c][1,2,4]triazol-3-yl]pyridin-2-yl}-6-[(2R)-2-methylpyrroli-din-1-yl]-2,3-dihydro-1H-pyrrolo[3,4-c]pyridin-1-one]
0.074	110		CC[C@@H](N)c1nc(C2(C)CC2)cc2c1CN(c1cccc(-c3nnc4n3[C@@H](CO)CC4)n1)C2=O (single isomer, unassigned) [Example 36]
< 0.05	49		CC[C@@H](N)c1nc(C2(C)CC2)cc2c1CN(c1cccc(-c3nnc4n3[C@@H](C)CC4)n1)C2=O (single isomer, unassigned) [Example 37]
< 0.05	52		CNCc1nc(N(C)C(C)C)cc2c1CN(c1cccc(-c3nnc4n3[C@@H](CF)CC4)n1)C2=O [Example 205, 2-{6-[(5R)-5-(fluoromethyl)-6,7-dihydro-5H-pyrrolo[2,1-c][1,2,4]triazol-3-yl]pyridin-2-yl}-4-[(methyl-amino)methyl]-6-[methyl (propan-2-yl)amino]-2,3-dihydro-1H-pyrrolo[3,4-c] pyridin-1-one]
0.08	133		C[C@H]1CCc2nnc(-c3cccc(N4Cc5c(cc(N(C)C)nc5C(C)(C)N)C4=O)n3)n21 (single isomer, unassigned) [Example 22, 4-(2-aminopropan-2-yl)-6-(dimethyl-amino)-2-{6-[(5ξ)-5-methyl-6,7-dihydro-5H-pyrrolo[2,1-c][1,2,4]triazol-3-yl]pyridin-2-yl}-2,3-dihydro-1H-pyrrolo[3,4-c]pyridin-1-one]
< 0.05		42	4-[(1ξ)-1- aminoethyl]-2- {6-[(5R)-5- (fluoromethyl)- 6,7-dihydro- 5H-pyrrolo[2,1- c][1,2,4]triazol- 3-yl]pyridin-2- yl}-6-[(2R)-2- methylpyrroli- din-1-yl]-2,3- dihydro-1H- pyrrolo[3,4- c]pyridin-1-one [Example 18]
< 0.05	23		C[C@@H]1CCCN1c1cc2c(c(C(C)(C)N)n1)CN(c1cccc(-c3nnc4n3[C@@H](C)CC4)n1)C2=O [Example 17, 4-(2-aminopropan-2-yl)-2-{6-[(5S)-5-methyl-6,7-dihydro-5H-pyrrolo[2,1-c][1,2,4]triazol-3-yl]pyridin-2-yl}-6-[(2R)-2-methylpyrroli-din-1-yl]-2,3-dihydro-1H-pyrrolo[3,4-c]pyridin-1-one]
